Results taken from patent US12037322B2, “AHR agonists” (Eli Lilly and Company, priority 2021, dated 2024).

Molecular target: T1, hAHR (Homo sapiens, UniProt P35869)
T1 construct: expressed in transfected cells
T1 sequence (P35869 11-848): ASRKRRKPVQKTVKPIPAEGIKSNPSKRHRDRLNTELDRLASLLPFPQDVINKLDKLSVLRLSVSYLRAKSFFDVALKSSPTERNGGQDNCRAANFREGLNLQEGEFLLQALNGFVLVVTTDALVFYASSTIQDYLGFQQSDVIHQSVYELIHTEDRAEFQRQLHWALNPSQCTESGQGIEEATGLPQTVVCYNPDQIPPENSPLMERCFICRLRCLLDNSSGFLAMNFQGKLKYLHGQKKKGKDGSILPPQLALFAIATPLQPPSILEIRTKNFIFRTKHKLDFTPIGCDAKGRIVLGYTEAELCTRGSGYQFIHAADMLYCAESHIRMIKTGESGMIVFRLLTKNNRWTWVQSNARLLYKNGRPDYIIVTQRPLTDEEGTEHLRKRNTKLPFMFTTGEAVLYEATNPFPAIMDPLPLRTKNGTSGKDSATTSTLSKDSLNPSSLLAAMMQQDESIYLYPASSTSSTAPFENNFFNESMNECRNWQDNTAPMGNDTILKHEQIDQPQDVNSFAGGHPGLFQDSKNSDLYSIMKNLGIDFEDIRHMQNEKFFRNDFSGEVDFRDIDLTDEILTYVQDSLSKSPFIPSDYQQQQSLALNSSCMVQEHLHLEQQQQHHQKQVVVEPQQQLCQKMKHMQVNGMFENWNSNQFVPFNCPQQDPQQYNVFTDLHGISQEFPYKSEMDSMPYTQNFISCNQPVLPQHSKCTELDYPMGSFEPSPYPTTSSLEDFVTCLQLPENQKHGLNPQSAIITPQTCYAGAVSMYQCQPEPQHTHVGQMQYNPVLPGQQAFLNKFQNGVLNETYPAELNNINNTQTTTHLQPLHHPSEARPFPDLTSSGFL
Experiment: hAHR nuclear translocation assay
Type: cell-based
Conditions: Jump-In T-REx HEK293 cells expressing AhR-EGFP; 45 min incubation; ratio of EGFP intensity in nuclear over cytosol; 20-point curve
Procedure: Stable cell lines were established using Jump-In™ T-REx™ HEK293 Retargeting Kit (Life Technologies). hAhR cDNA was cloned into the pJTI R4 CMV-TO EGFP vector. The EGFP was cloned to the C-terminal of AHR to form AhR-EGFP chimera. The pJTI R4 CMV-TO AhR-EGFP vector was transfected using FuGENE® HD into Jump-In™ T-REx™ HEK293 cells. Transfected cells were selected using 2.5 mg/ml G418 for 10 to 14 days, then expanded, harvested, and suspended in freeze media (FBS with 8% DMSO) at 2×10^7 cells/mL, and aliquots were stored in liquid nitrogen. One day before the assay date, cells were thawed and resuspended in DMEM with 5% FBS in the presence of 1 μg/mL Doxycycline and plated into ploy-L-Lysine coated […]-384 ULTRA Microplates (Perkin Elmer) at 12,000 to 15,000 cells per well and incubated at 37° C. and 5% CO2 overnight. On the assay date, compound was serially diluted (1:2) into 384-well nunc plates with DMSO using acoustic dispensing (ECHO). The dose response was a 20-point curve. Compound was resuspended in 40 μL of DMEM plus 0.1% BSA. The culture media was damped and 25 μL of DMEM plus 0.1% BSA was added, then 25 μL of compound in DMEM plus 0.1% BSA was added into cell plates. Cells were incubated with compounds at 37° C. and 5% CO2 for 45 min.
The final DMSO concentration was 0.2%. The media was damped after 45 minutes incubation. The cells were fixed with 40 μL of cold MeOH (−20° C.) for 20 min. The MeOH was damped and 50 μL of DPBS containing 1 μg/mL Hochst was added into the cell plates. The intensity of EGFP was quantitated by using OPERA PHENIX® or Operetta™ high content image system (Perkin Elmer) with 20× Water Objective and five field per well. The ratio of EGFP fluorescent intensity in nuclear over cytosol was analyzed using a 4-parameter nonlinear logistic equation to determine the potency of AhR agonists.

Structure (SMILES)	EC50 [nM]
CC1Cc2cc(C(=O)Nc3ncccn3)c(=O)n(C)c2C1 (stereo not shown) [Example 79, 1,6-Dimethyl-2-oxo-N-pyrimidin-2-yl-6,7-dihydro-5H-cyclopenta[b]pyridine-3-carboxamide]	20.3
CCN1CCc2c(cc(C(=O)Nc3ccccc3)c(=O)n2C)C1 [Example 107, 6-Ethyl-1-methyl-2-oxo-N-phenyl-7,8-dihydro-5H-1,6-naphthyridine-3-carboxamide]	108
CCC1CCc2c1cc(C(=O)Nc1ncc(F)cn1)c(=O)n2C (single isomer, unassigned) [Example 115, 5-ethyl-N-(5-fluoropyrimidin-2-yl)-1-methyl-2-oxo-6,7-dihydro-5H-cyclopenta[b]pyridine-3-carboxamide]	2.96
Cn1c2c(cc(C(=O)Nc3ncccn3)c1=O)CCCC2 [Example 103, 1-Methyl-2-oxo-N-pyrimidin-2-yl-5,6,7,8-tetrahydroquinoline-3-carboxamide]	27
Cn1c2c(cc(C(=O)Nc3ccccc3)c1=O)COCC2 [Example 106, 1-Methyl-2-oxo-N-phenyl-7,8-dihydro-5H-pyrano[4,3-b]pyridine-3-carboxamide]	25.9
CC1CCc2c1c(O)c(C(=O)Nc1ccns1)c(=O)n2C (single isomer, unassigned) [Example 36, 4-Hydroxy-N-isothiazol-5-yl-1,5-dimethyl-2-oxo-6,7-dihydro-5H-cyclopenta[b]pyridine-3-carboxamide]	2.78
CC1CCc2c1cc(C(=O)Nc1nccc(C(F)(F)F)n1)c(=O)n2C (stereo not shown) [Example 7, 1,5-Dimethyl-2-oxo-N-[4-(trifluoromethyl)pyrimidin-2-yl]-6,7-dihydro-5H-cyclopenta[b]pyridine-3-carboxamide]	8.26
CC1CCc2c1cc(C(=O)NC1CCCC1)c(=O)n2C (stereo not shown) [Example 9, N-Cyclopentyl-1,5-dimethyl-2-oxo-6,7-dihydro-5H-cyclopenta[b]pyridine-3-carboxamide]	191
C[C@@H]1CCc2c1cc(C(=O)Nc1ccccn1)c(=O)n2C [Example 23, (5R)-1,5-Dimethyl-2-oxo-N-(2-pyridyl)-6,7-dihydro-5H-cyclopenta[b]pyridine-3-carboxamide]	11.5
CC1CCc2c1cc(C(=O)Nc1ncccn1)c(=O)n2C (single isomer, unassigned) [Example 82, 1,5-Dimethyl-2-oxo-N-pyrimidin-2-yl-6,7-dihydro-5H-cyclopenta[b]pyridine-3-carboxamide]	25.1
CC1CCc2c1c(O)c(C(=O)Nc1ccc(C(F)(F)F)cn1)c(=O)n2C (stereo not shown) [Example 33, 4-Hydroxy-1,5-dimethyl-2-oxo-N-[5-(trifluoromethyl)-2-pyridyl]-6,7-dihydro-5H-cyclopenta[b]pyridine-3-carboxamide]	2.64
CC1CCc2c1c(O)c(C(=O)Nc1ncco1)c(=O)n2C (single isomer, unassigned) [Example 34, 4-Hydroxy-1,5-dimethyl-N-oxazol-2-yl-2-oxo-6,7-dihydro-5H-cyclopenta[b]pyridine-3-carboxamide]	7.46

Next, values leading:

EC50 [nM]	Structure (SMILES)
1.62	CC1CCc2c1c(O)c(C(=O)Nc1ncc(F)cn1)c(=O)n2C (stereo not shown) [Example 30, N-(5-Fluoropyrimidin-2-yl)-4-hydroxy-1,5-dimethyl-2-oxo-6,7-dihydro-5H-cyclopenta[b]pyridine-3-carboxamide]
2.59	COc1cnc(NC(=O)c2c(O)c3c(n(C)c2=O)CCC3C)nc1 (single isomer, unassigned) [Example 102, 4-Hydroxy-N-(5-methoxypyrimidin-2-yl)-1,5-dimethyl-2-oxo-6,7-dihydro-5H-cyclopenta[b]pyridine-3-carboxamide]
1.22	CC1CCc2c1cc(C(=O)Nc1ncc(C(F)(F)F)cn1)c(=O)n2C (single isomer, unassigned) [Example 65, 1,5-Dimethyl-2-oxo-N-[5-(trifluoromethyl)pyrimidin-2-yl]-6,7-dihydro-5H-cyclopenta[b]pyridine-3-carboxamide]
0.865	CC(C)C1CCc2c1cc(C(=O)Nc1ncc(F)cn1)c(=O)n2C (single isomer, unassigned) [Example 112, N-(5-fluoropyrimidin-2-yl)-5-isopropyl-1-methyl-2-oxo-6,7-dihydro-5H-cyclopenta[b]pyridine-3-carboxamide]
2.5	Cn1c2c(cc(C(=O)Nc3ccccc3)c1=O)CCC2 [Example 108, 1-Methyl-2-oxo-N-phenyl-6,7-dihydro-5H-cyclopenta[b]pyridine-3-carboxamide]
0.803	Cn1c2c(cc(C(=O)Nc3ccccc3)c1=O)CC(C)(C)C2 [Example 47, 1,6,6-Trimethyl-2-oxo-N-phenyl-5,7-dihydrocyclopenta[b]pyridine-3-carboxamide]
1.44	CC1CCc2c1c(O)c(C(=O)Nc1ncccc1F)c(=O)n2C (single isomer, unassigned) [Example 92, N-(3-Fluoro-2-pyridyl)-4-hydroxy-1,5-dimethyl-2-oxo-6,7-dihydro-5H-cyclopenta[b]pyridine-3-carboxamide]
2.33	CC1CCc2c1c(O)c(C(=O)Nc1ccccn1)c(=O)n2C (single isomer, unassigned) [Example 89, 4-Hydroxy-1,5-dimethyl-2-oxo-N-(2-pyridyl)-6,7-dihydro-5H-cyclopenta[b]pyridine-3-carboxamide]
1.83	CC1CCc2c1cc(C(=O)Nc1ccc(F)cn1)c(=O)n2C (single isomer, unassigned) [Example 57, N-(5-Fluoro-2-pyridyl)-1,5-dimethyl-2-oxo-6,7-dihydro-5H-cyclopenta[b]pyridine-3-carboxamide]
1.04	Cn1c2c(cc(C(=O)Nc3ccccc3)c1=O)CCCCC2 [Example 109, 1-Methyl-2-oxo-N-phenyl-6,7,8,9-tetrahydro-5H-cyclohepta[b]pyridine-3-carboxamide]
0.64	Cn1c2c(cc(C(=O)Nc3ccccc3)c1=O)CC(C)(C)CC2 [Example 105, 1,6,6-Trimethyl-2-oxo-N-phenyl-7,8-dihydro-5H-quinoline-3-carboxamide]
2.4	CC1CCc2c1c(O)c(C(=O)Nc1nccc(C(F)(F)F)n1)c(=O)n2C (stereo not shown) [Example 31, 4-Hydroxy-1,5-dimethyl-2-oxo-N-[4-(trifluoromethyl)pyrimidin-2-yl]-6,7-dihydro-5H-cyclopenta[b]pyridine-3-carboxamide]
0.709	CC1CCc2c1c(O)c(C(=O)Nc1ncc(C(F)(F)F)cn1)c(=O)n2C (single isomer, unassigned) [Example 97, 4-Hydroxy-1,5-dimethyl-2-oxo-N-[5-(trifluoromethyl)pyrimidin-2-yl]-6,7-dihydro-5H-cyclopenta[b]pyridine-3-carboxamide]
1.34	C[C@H]1CCc2c1cc(C(=O)Nc1ccns1)c(=O)n2C [Example 17, (5S)-N-Isothiazol-5-yl-1,5-dimethyl-2-oxo-6,7-dihydro-5H-cyclopenta[b]pyridine-3-carboxamide]
1.97	CC1CCc2c1c(O)c(C(=O)Nc1ccns1)c(=O)n2C (single isomer, unassigned) [Example 37, 4-Hydroxy-N-isothiazol-5-yl-1,5-dimethyl-2-oxo-6,7-dihydro-5H-cyclopenta[b]pyridine-3-carboxamide]
0.533	CC1CCc2c1c(O)c(C(=O)Nc1ncc(Cl)cn1)c(=O)n2C (single isomer, unassigned) [Example 94, N-(5-Chloropyrimidin-2-yl)-4-hydroxy-1,5-dimethyl-2-oxo-6,7-dihydro-5H-cyclopenta[b]pyridine-3-carboxamide]
